One assay can be described thus: ABTS assay. Particulars: means ± S.D. (n = 3); NA: not active at maximum concentration tested; read-out: ABTS Test IC50. How it is done: The ABTS assay was performed according to a previously reported protocol. Absorbance was measured at 734 nm using a UV-Vis spectrophotometer (model V-550, Jasco, Milan, Italy) Ascorbic acid was used as positive control.
Assay [1] can be described thus: DPPH free radical scavenging assay. Particulars: means ± S.D. (n = 3); NA: not active at maximum concentration tested; read-out: DPPH Test IC50. The procedure: The DPPH assay was performed according to a previously reported protocol. Absorbance was measured at 517 nm using a UV-Vis spectrophotometer (model V-550, Jasco, Milan, Italy). Ascorbic acid was used as positive control.

A short description of assay [2]: Ferric reducing ability power (FRAP) test. Particulars: means ± S.D. (n = 3). How it is done:
The FRAP test was performed following the protocol previously described. Absorbance was measured using a UV-Vis spectrophotometer (model V-550, Jasco, Milan, Italy) at 470 nm. FRAP value was expressed as mM Fe(II)/g. Butylated hydroxytoluene (BHT) was used as a positive control.

For another assay, the system named is healthy human subjects. Also on record: method as in PMID 16612838. Particulars: oral administration; cited from earlier work.
A further assay has as its system β-cells. Details: method as in PMID 31022842. Conditions: cited from earlier work.
Assay [3] in a line: β-Carotene bleaching test. How it is done: The β-carotene bleaching test was performed as previously described. The absorbance of the samples, standard, and control was measured using a UV-Vis spectrophotometer (model V-550, Jasco, Milan, Italy) at 470 nm against a blank at t = 0 and successively at 30 and 60 min. Propyl gallate was used as positive control.
A further assay deals with type 1 diabetic rats. Also on record: method as in PMID 28230360. Conditions: orally 6 mg/Kg for 28 days; cited from earlier work.
Another assay deals with α-glucosidase. Description: α-Glucosidase inhibitory assay. The format is biochemical. Conditions: for Ki: calculated following the Cheng–Prusoff equation; for IC50 / α-Glucosidase IC50: means ± S.D. (n = 3). How it is done: The α-glucosidase inhibitory assay was achieved following the procedure previously described. Absorbance was measured at 500 nm using a UV-Vis spectrophotometer (model V-550, Jasco, Milan, Italy). […] Ki value was calculated as previously described.

For the next assay, the target named is T1, α-amylase (Sus scrofa, UniProt P00690).
T1 sequence (P00690 16-511): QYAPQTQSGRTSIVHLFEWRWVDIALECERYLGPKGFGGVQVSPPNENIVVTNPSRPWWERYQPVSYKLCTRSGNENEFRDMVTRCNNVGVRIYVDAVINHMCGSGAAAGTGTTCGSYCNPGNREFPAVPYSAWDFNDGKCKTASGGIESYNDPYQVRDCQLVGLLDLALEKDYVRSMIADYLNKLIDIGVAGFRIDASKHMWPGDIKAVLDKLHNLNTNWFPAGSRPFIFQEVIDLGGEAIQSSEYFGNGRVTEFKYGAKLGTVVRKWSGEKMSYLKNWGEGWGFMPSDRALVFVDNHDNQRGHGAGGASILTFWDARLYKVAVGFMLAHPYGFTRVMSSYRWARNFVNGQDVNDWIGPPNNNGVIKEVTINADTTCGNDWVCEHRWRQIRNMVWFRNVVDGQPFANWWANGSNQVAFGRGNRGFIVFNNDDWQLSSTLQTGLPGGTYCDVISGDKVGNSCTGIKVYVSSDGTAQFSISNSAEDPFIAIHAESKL
Description: α-Amylase inhibitory assay. The format is biochemical. Particulars: means ± S.D. (n = 3). The procedure:
The α-amylase inhibition assay was accomplished as previously described. Absorbance was measured at 540 nm using a UV-Vis spectrophotometer (model V-550, Jasco, Milan, Italy). […] Ki values were calculated following the Cheng–Prusoff equation [18].

Setting [4] is: read-out: β-Carotene Bleaching Test IC50 30 min, 30 min of incubation.
Where [5] appears, read: read-out: β-Carotene Bleaching Test IC50 60 min, 60 min of incubation.

The term IC50 denotes the concentration needed to halve the response being measured. In general, Ki refers to a dissociation constant, usually derived from enzyme kinetics or from competition with a known ligand.

Where “and” joins values, the source holds several entries; their conditions need not be identical. Equal entries are not always repeated. Where two headings read alike, the source gives them in different places.

For `O=C1O[C@H]([C@@H](O)CO)C(O)=C1O` [Ascorbic acid], the half-maximal inhibitory concentration (IC50) in the assay “ABTS assay” is 9.6 ± 0.9 µM; in [1], 23 ± 2 µM.

Consider `Cc1cc(C(C)(C)C)c(O)c(C(C)(C)C)c1` [BHT, Butylated hydroxytoluene], for which the “FRAP Test” value in assay [2] is given as 63 ± 4 μM Fe(II)/g.

In the case of `COc1cc(CNC(=O)CCCC/C=C/C(C)C)ccc1O` [Capsaicin, capsaicin], the IC50 is 0.3 µM in “ABTS assay”; 0.6 µM in assay [1]; 10 ± 1 µM in assay [3] (setting [4]); 11 ± 1 µM in assay [3] (setting [5]); 13 ± 1 µM at α-glucosidase. Further, the “plasma insulin concentrations after glucose loading” value with healthy human subjects was “did not significantly differ from the control group”. Moreover, the “release of insulin compared to the control” value in the assay with β-cells (15 min of incubation) and in the assay with β-cells (120 min of incubation) was “ineffective” each time. The intestinal glucose absorption entry with type 1 diabetic rats was “inhibited intestinal glucose absorption”. The “FRAP Test” value in assay [2] is reported as 30 ± 3 μM Fe(II)/g. The Ki on α-glucosidase is 1 µM.

As to `CC/C=C\C/C=C\C/C=C\C/C=C\C/C=C\C/C=C\CCC(=O)O` [DHA, docosahexaenoic acid], the “α-Amylase IC50” value on α-amylase is “No significant carbohydrate-hydrolysing enzymes inhibition”. Further, the “release of insulin compared to the control” value in the assay on β-cells (15 min of incubation) and in the assay on β-cells (120 min of incubation) was “ineffective” throughout. Also, the concentration for half-maximal inhibition (IC50) amounted to 70 ± 4 µM in [3] (setting [4]), 287 ± 10 µM in assay [3] (setting [5]) and 268 ± 9 µM against α-glucosidase. In addition, in assay [2], the “FRAP Test” value is 9 ± 1 μM Fe(II)/g. Besides, the Ki at α-glucosidase was 10 µM. At α-glucosidase, the “α-Glucosidase IC50” value is “No significant carbohydrate-hydrolysing enzymes inhibition”.

Regarding `CC/C=C\C/C=C\C/C=C\C/C=C\C/C=C\C/C=C\CCC(=O)NCc1ccc(O)c(OC)c1` [DHVA, N-docosahexaenoyl vanillylamine], the IC50 in the assay “ABTS assay” is 0.3 µM; in [1] it was 0.8 µM; in [3] (setting [4]) it was 46 ± 3 µM; in assay [3] (setting [5]), 56 ± 3 µM; on α-glucosidase, 23.9 µM and 24 µM. Moreover, the “release of insulin compared to the control” value in the assay with β-cells (15 min of incubation) is given as “ineffective”; with β-cells (120 min of incubation), “slight decrease”. Also, the “FRAP Test” value in assay [2] is listed as 18 ± 2 μM Fe(II)/g. Besides, the inhibitory constant (Ki) at α-glucosidase is 2 µM.

Regarding `CC/C=C\C/C=C\C/C=C\C/C=C\C/C=C\CCCC(=O)O` [EPA, eicosapentaenoic acid], the “α-Amylase IC50” value on α-amylase is recorded as “No significant carbohydrate-hydrolysing enzymes inhibition”. For the same molecule, the “release of insulin compared to the control” value in the assay on β-cells (15 min of incubation) and in the assay on β-cells (120 min of incubation) was “ineffective” in each case. Further, the IC50 in [3] (setting [4]) stood at 74 ± 5 µM; in assay [3] (setting [5]), 310 ± 10 µM; against α-glucosidase, 250 ± 9 µM. Also, in [2], the “FRAP Test” value is given as 4.8 ± 0.8 μM Fe(II)/g. Further, at α-glucosidase, the inhibitory constant (Ki) was 10 µM. Also, the “α-Glucosidase IC50” value on α-glucosidase is “No significant carbohydrate-hydrolysing enzymes inhibition”.

Consider `CC/C=C\C/C=C\C/C=C\C/C=C\C/C=C\CCCC(=O)NCc1ccc(O)c(OC)c1` [EPVA, N-eicosapentaenoyl vanillylamine], for which the IC50 in “ABTS assay” was 0.2 µM; in [1] it was 1 µM; in [3] (setting [4]), 9 ± 1 µM; in assay [3] (setting [5]), 11 ± 1 µM; at α-glucosidase it was 23.6 µM and 24 µM. Moreover, the “release of insulin compared to the control” value with β-cells (15 min of incubation) and with β-cells (120 min of incubation) was “significant increase” throughout. The “FRAP Test” value in assay [2] is 28 ± 2 μM Fe(II)/g. Besides, the Ki at α-glucosidase was 2 µM.

On to `CCCOC(=O)c1cc(O)c(O)c(O)c1` [Propyl gallate], for which the half-maximal inhibitory concentration (IC50) in assay [3] (setting [4]) and in assay [3] (setting [5]) was 0.4 µM throughout.

Take `COc1cc(COC(=O)CCCC/C=C/C(C)C)ccc1O` [capsiate]: the intestinal glucose absorption result in the assay on type 1 diabetic rats is “inhibited intestinal glucose absorption”.

These data come from PMC6616483, “Non-Pungent n-3 Polyunsaturated Fatty Acid (PUFA)-Derived Capsaicin Analogues as Potential Functional Ingredients with Antioxidant and Carbohydrate-Hydrolysing Enzyme Inhibitory Activities” (Antioxidants, 2019).
